The record followed here is US20130123618A1, “Imaging Agents” (priority 2008, published 2013).

Assay type in all cases: cell-based
For one assay, the system named is U87 Human Glioma cells. The assay can be described thus: in vitro amino acid uptake in U87 cells. An excerpt: (§1) Compounds have been evaluated in vitro for tumor binding specificity (i.e. uptake cells) using a variety of tumor cell lines available in the art, along with reference compounds such as Me-AlB and BCH. Detailed description of these assays can be found in Martarello et al. (2002) Journal of Medicinal Chemistry, 45:2250-2259 and McConathy et al. (2003) Nuclear Medicine and Biology, 30:477-490. These so called “amino acid uptake studies” are typically carried out with radiolabeled compounds in at least five phenotypically different human tumor cell lines (e.g., A549 lung carcinoma, MB468 breast carcinoma, DU145 prostate carcinoma-androgen independent, LnCap-androgen dependent, SKOV3 ovarian carcinoma, U87 glial blastoma, MIA PaCa-2 pancreas carcinoma, MDA MB231 breast carcinoma). These tumor cell lines can be grown either in vitro or in vivo with severe combined immunodeficiency (SCID) mice as a host. The afore-mentioned tumor cell lines are available at the Winship Cancer Institute of Emory University.
(§2) For the in vitro amino acid uptake studies, all cells can be grown to monolayer confluency in T-175 culture flasks [Corning, Corning, N.Y.] (approx. 1×10^8 cells/flask) in Dulbecco's Modified Eagle's Medium (DMEM) [Sigma, St. Louis, Mo.] in a humidified incubator (37° C., 5% CO2/95% air). […]
(§3) In the in vitro studies the uptake rate of each amino acid compound is measured in each tumor line, as well as the dominant transport mechanisms of each tumor cell line. After trypsinization, cells are resuspended in serum-free media, then counted on a hemocytometer, with viability assessed through Trypan blue staining. […] The vials are placed in a Cobra-II gamma counter (Packard, Meriden, Conn.), with the activity per cell number determined. […] Saline washes are performed as described above, and the filtered cells' radioactivity determined on the gamma counter. […]
(§4) The uptake of all compounds were measured in human and rat cancer cell lines and the dominant transport (“A” and “L”) mechanism of each culture were determined. […]

Assay [1] has as its system SKOV3 Human Ovarian carcinoma cells. The assay can be described thus: in vitro amino acid uptake in SKOV3 cells.
From the text: as §1, §2, §3, §4

A further assay deals with tumor cells. The assay can be described thus: overall conclusion of uptake studies in cancer cells in vitro. The method, then: In the in vitro studies the uptake rate of each amino acid compound is measured in each tumor line, as well as the dominant transport mechanisms of each tumor cell line. After trypsinization, cells are resuspended in serum-free media, then counted on a hemocytometer, with viability assessed through Trypan blue staining. Approximately 1×10^7 cells are exposed to each compound (15 μCi) in 15 ml of amino acid free media for 5, 10, 15, 30 and 60 minutes at 37° C. Cells are then centrifuged at 150×g for 5 minutes, rinsed in 5 ml cold-saline, recentrifuged, resuspended in 3 ml saline, and placed into 12×75 mm glass vials (Fisher, Pittsburgh, Pa.). The vials are placed in a Cobra-II gamma counter (Packard, Meriden, Conn.), with the activity per cell number determined. Inhibition studies determine the dominant transport mechanism (L, A or ASC) for each line [Martarello et al. (2002) supra; McConathy et al. (2003) supra]. For these studies, cells are exposed to the compounds for 30 minutes in amino acid free media containing one of three inhibitors (2-amino-norbornyl-2-carboxylic acid (BCH), 10 mM; α-(methylamino)-isobutyric acid (MeAlB), 10 mM; and an alanine-serine-cysteine mixture 1:1:1 (acs), 10 mM). Saline washes are performed as described above, and the filtered cells' radioactivity determined on the gamma counter. Comparisons with the 30 minute control uptake indicate the major transporters used. Results of these studies are found in FIGS. 1-18.
Approximately 10^6 cells were exposed to the [^18F]amino acid candidate (5 μCi) in 3 ml of amino acid-free media±transporter inhibitors (10 mM) for 30 minutes under incubation conditions by the method previously described (McConathy, J.; Martarello, L.; Malveaux, E.; Camp, V.; Bowers, G.; Olson, J.; Goodman, M. (2002) Radiolabeled amino acids for tumor imaging with PET: radiosynthesis and biological evaluation of [^18F]2-amino-3-fluoro-2-methylpropanoic acid and [^18F]3-fluoro-2-methyl-2-(methylamino)-propanoic acid. J. Med. Chem. 45, 2240-2249). The inhibition studies determined the dominant transport mechanism (L, A) for each candidate PET amino acid for each tumor model. 2-Methylaminoisobutyric acid (MeAlB) and 2-aminobicyclo-[2.2.1]-heptane-2-carboxylic acid (BCH) serve as inhibitors for the “A”, “L” transport systems, respectively.

Assay [2] concerns DU145 Human Prostate carcinoma cells. Description: in vitro amino acid uptake in DU145 cells.
From the text: as §1, §2, §3, §4

Assay [3] concerns A549 Human Lung adenocarcinoma cells. The assay can be described thus: in vitro amino acid uptake in A549 cells.
From the text: as §1, §2, §3, §4

As for `N[C@]1(C(=O)O)CCC[C@@H]1[18F]` (single isomer, unassigned; enantiomer 1) [Enantiomer 1, anti-2-[^18F]FACPC], the “% Dose uptake per 0.5 × 10−6 Cells” value with U87 Human Glioma cells amounted to 28 % Dose/0.5 × 10^−6; in assay [1] it was 7 % Dose/0.5 × 10^−6; in assay [2], 8 % Dose/0.5 × 10^−6; in assay [3] it was 13 % Dose/0.5 × 10^−6. Also, the “selective uptake in tumor cells” value in the assay on tumor cells is “selectively taken up in tumor cells”. For the same molecule, the “in vitro uptake in cancer cells compared with enantiomer 2” value with tumor cells (in vitro in cancer cells) is reported as “greater uptake than enantiomer 2”.
On to `NC1(C(=O)O)CCC1[18F]` (racemic) [racemic anti-2-[^18F]FACBC], for which the “% Dose uptake per 0.5 × 10−6 Cells” value was determined as 8.3 % Dose/0.5 × 10^−6 in the assay on U87 Human Glioma cells, 2.2 % Dose/0.5 × 10^−6 in assay [1], 6.4 % Dose/0.5 × 10^−6 in assay [2] and 8.9 % Dose/0.5 × 10^−6 in assay [3]. In the assay with tumor cells, the “selective uptake in tumor cells” value is on record as “selectively taken up in tumor cells”.
